For data set [1], the target named is T1, DacA (rDacA) (Streptococcus agalactiae, UniProt Q8E051).
T1 construct: amino acids 96-243, transmembrane domain deleted, N-terminal 6xHis (pET28a), E. coli Bli5, purified
T1 sequence (Q8E051 96-243): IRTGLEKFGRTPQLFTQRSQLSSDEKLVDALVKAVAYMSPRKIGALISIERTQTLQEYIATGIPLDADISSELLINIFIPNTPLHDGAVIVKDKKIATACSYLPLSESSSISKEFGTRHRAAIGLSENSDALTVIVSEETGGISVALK
The data set is described as follows: RP-HPLC of c-di-AMP formation. It is filed as biochemical. The following applies: 2.5 uM rDacA, 1 mM ATP, 50 mM Tris pH 8.5, 100 mM NaCl, 10 mM MnCl2, 37 C.

The target in data set [2] is T2, BusR (Gbs1201) (Streptococcus agalactiae, UniProt I7JWA3).
T2 construct: gene BM110_ORF1201; full length (213 aa), N-terminal His or His-MBP tag, expressed in E. coli Bli5, whole-cell extract
T2 sequence (I7JWA3 1-213): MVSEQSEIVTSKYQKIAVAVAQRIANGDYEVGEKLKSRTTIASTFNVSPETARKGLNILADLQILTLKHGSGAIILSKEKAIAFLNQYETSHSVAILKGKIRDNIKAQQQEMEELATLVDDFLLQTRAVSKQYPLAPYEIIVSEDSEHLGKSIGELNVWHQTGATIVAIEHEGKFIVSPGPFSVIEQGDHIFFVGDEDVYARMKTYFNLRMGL
Briefly: DRaCALA, […]-labelled c-di-AMP, whole E. coli extract. The following applies: 1 nM 32P-c-di-AMP, 40 mM Tris pH 7.5, 100 mM NaCl, 10 mM MgCl2, room temperature; labelled compound; competition with 200 uM cold nucleotide. It is filed as binding.

Data set [3] deals with T3, OpuCA (Gbs0235) (Streptococcus agalactiae, UniProt Q8E7C0).
T3 construct: full length, N-terminal His-MBP tag (signal only with this tag), expressed in E. coli Bli5, whole-cell extract
T3 sequence (Q8E7C0 1-381): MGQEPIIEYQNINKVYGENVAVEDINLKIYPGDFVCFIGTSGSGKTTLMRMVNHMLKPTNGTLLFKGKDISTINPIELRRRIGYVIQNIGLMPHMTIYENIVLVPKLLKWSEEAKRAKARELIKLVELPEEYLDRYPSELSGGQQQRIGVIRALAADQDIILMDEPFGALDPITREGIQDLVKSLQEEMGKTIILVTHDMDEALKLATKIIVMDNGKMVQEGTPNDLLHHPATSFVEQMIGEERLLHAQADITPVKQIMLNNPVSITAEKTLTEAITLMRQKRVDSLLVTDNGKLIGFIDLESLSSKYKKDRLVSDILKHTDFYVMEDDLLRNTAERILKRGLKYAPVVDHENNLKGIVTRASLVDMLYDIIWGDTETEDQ
The description is as above. It is filed as binding. Conditions: […]P-c-di-AMP, […] Tris pH […] NaCl, […] MgCl2, room temperature; labelled compound; competition with […] cold nucleotide.

For data set [4], the target named is T4, KtrA (Gbs1678) (Streptococcus agalactiae, UniProt Q8E3S8).
T4 construct: full length, N-terminal His or His-MBP tag, expressed in E. coli Bli5, whole-cell extract
T4 sequence (Q8E3S8 1-223): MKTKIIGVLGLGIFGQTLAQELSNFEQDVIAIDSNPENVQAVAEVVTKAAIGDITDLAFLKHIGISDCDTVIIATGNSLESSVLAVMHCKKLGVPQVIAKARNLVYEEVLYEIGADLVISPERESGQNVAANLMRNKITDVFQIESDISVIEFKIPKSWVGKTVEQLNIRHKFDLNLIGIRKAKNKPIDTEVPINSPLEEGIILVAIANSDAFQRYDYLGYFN
The description is as above. It counts as binding. Conditions: […]P-c-di-AMP, […] Tris pH […] NaCl, […] MgCl2, room temperature; labelled compound; competition with […] cold nucleotide.

The target in data set [5] is T5, TrkH (Gbs1639) (Streptococcus agalactiae, UniProt Q8DYA0).
T5 construct: gene SAG1590; full length, N-terminal His tag (detected by Western only with the His tag), expressed in E. coli Bli5, whole-cell extract
T5 sequence (Q8DYA0 1-449): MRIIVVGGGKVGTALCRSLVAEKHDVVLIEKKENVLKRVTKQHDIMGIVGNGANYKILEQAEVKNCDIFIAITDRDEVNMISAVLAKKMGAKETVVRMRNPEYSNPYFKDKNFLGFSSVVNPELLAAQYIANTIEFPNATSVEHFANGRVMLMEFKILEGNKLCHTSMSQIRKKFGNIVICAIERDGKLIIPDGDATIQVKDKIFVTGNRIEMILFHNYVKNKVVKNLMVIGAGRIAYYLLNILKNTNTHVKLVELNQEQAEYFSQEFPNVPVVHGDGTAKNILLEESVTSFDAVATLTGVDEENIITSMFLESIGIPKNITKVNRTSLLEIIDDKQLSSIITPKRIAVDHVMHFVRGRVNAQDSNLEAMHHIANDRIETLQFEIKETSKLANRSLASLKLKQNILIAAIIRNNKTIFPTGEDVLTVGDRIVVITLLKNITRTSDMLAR
The description is as above. It is filed as binding. The following applies: 1 nM 32P-c-di-AMP, 40 mM Tris pH 7.5, 100 mM NaCl, 10 mM MgCl2, room temperature; labelled compound; competition with 200 uM cold nucleotide.

The subject of data set [6] is T6, BusR (rBusR) (Streptococcus agalactiae NEM316), ORF:6b20ee22.
T6 sequence: T2 sequence (I7JWA3 1-213)
Briefly: EMSA. The following applies: 25 mM Na2HPO4/NaH2PO4 pH 8, 50 mM NaCl, 2 mM MgCl2, 1 mM DTT, 10% glycerol, 0.1 ug/ul poly(dI-dC), 0.02 ug/ul BSA, 20 min room temperature; 6% PAGE at 4 C.

This is an account of results in publication PMC5919688, “Cyclic di-AMP regulation of osmotic homeostasis is essential in Group B Streptococcus” (PLoS Genetics, 2018).

Consider `Nc1ncnc2c1ncn2[C@@H]1O[C@H](COP(=O)(O)OP(=O)(O)OP(=O)(O)O)[C@@H](O)[C@H]1O` [ATP], for which, in data set [1], the “RP-HPLC of c-di-AMP formation” value is recorded as “the purified recombinant DacA protein produces c-di-AMP from two molecules of ATP”.
On to `Nc1ncnc2c1ncn2[C@@H]1O[C@@H]2COP(=O)(O)O[C@H]3[C@@H](O)[C@H](n4cnc5c(N)ncnc54)O[C@@H]3COP(=O)(O)O[C@H]2[C@H]1O` [c-di-AMP], for which the “DRaCALA, 32P-labelled c-di-AMP, whole E. coli extract” value in data set [2] is “C-di-AMP binds to four proteins: KtrA (Gbs1678), TrkH (Gbs1639), OpuCA (Gbs0235) and Gbs1201”; in data set [3] it was “C-di-AMP binds to four proteins: KtrA (Gbs1678), TrkH (Gbs1639), OpuCA (Gbs0235)”; in data set [4], “C-di-AMP binds to four proteins: KtrA (Gbs1678)”; in data set [5], “C-di-AMP binds to four proteins: KtrA (Gbs1678), TrkH (Gbs1639)”. Besides, in data set [1], the “RP-HPLC of c-di-AMP formation” value is “the purified recombinant DacA protein produces c-di-AMP from two molecules of ATP”.
For the compound “AGTTGTAATATTAATACTAATAAGTCTTTAAATAATTCAATAATGCCATAACAATAATGGTGTGGGCTAATTAAAATATCTCTAAGCAAAGGTGTTGACATAAAGAGACCATACATGATATTATAGTTATGTTCTGTTTCGGCAGTTTATTTTTTTGAGTAAAAAAGTGACTACCCTTTTACGATACTTTAACGTCACTTTATAGATAAGACACATAACCTTAAAAATAAGATACGAAATT (double strand) [PbusAB EMSA fragment (245 bp)]”, the binding entry in data set [6] is listed as “binds”.
